Measured values from patent US20170304280A1, “SYNERGISTIC COMBINATIONS STIMULATING THE EXPRESSION OF SIRTUIN 1” (priority 2014, published 2017).

System: SIRT 1
Assay: Western blot analysis of the expression of SIRT 1 in HeLa cells
Format: cell-based, Human
Conditions: for % 3 h increase (SIRT 1 expression compared to control) / % 6 h increase (SIRT 1 expression compared to control) / % 24 h increase (SIRT 1 expression compared to control): HeLa cells; for increase of SIRT 1 expression relative to the other groups: Table 1, especially with respect to resveratrol, reference standard
Method: The synergistic effects of co-administration of two substances on SIRT 1 stimulation, determined as a greater, statistically significant effect than the sum of the effects of the two substances individually administered, were evaluated in cell cultures by repeating the experiment at least 8 times for each single combination, either after a stimulation time of 3, 6 and 24 hours (more than 300 total trials), as described in the following detailed description.
Human Cervical Carcinoma cells (HeLa) were cultured in DMEM supplemented with 10% (v/v) fetal bovine serum, 1% antibiotics (penicillin and streptomycin) and 1% L-glutamine at 37° C. in a humidified air atmosphere with 5% (v/v) CO2.
The cells were grown to a confluence of 80%, were then trypsinized, counted with a Burker chamber and plated (100,000 cells /well). The day of the experiment, the cells were treated with the substances at the different concentrations and left in incubation for 3, 6 and 24 hours. The substances were solubilized in DMSO, used at concentrations not toxic for cells (v/v<0.5%).
At the end of the incubation periods, the cells were washed with PBS (pH 7.4) and collected in a 1.5 ml microtube with 0.130 ml of lysis buffer (RIPA buffer) containing a protease inhibitor cocktail, a phosphatase inhibitor cocktail, PMSF, sodium orthovanadate and sodium pyrophosphate.
They were lysed by three freezing-thawing cycles and then the supernatant were recovered.
A part of the lysate was used to quantified the protein content with the spectrophotometer (Thermo Scientific Multiskan FC, Thermo Scientific), using a commercial kit based on the Bradford assay. The final concentrations are expressed in μg/μl.
The cell lysates (25 μg/μl) were combined with the appropriate amount of 1× SDS sample buffer (0.5 M Tris-HCl pH 6.8, 20% SDS, 10% [vol/vol] glycerol, 5% [vol/vol] β-mercaptoethanol, 0.2% bromophenol blue), heated at 95° C. for 5 min, separated by SDS-PAGE and then transferred to polyvinylidene difluoride membranes (PVDF).
For the electrophoretic separation was used a polyacrylamide gel, composed of two parts, a lower one called “Running gel”, containing acrylamide (acrylic acid amide) to 12% (acrylamide/bis-acrylamide 30%), in which occurs the separation of the proteins, and an upper one, called loading gel or “Stacking gel”, containing acrylamide to 10%, where were built the wells for sample loading.
The electrophoretic run was performed by passing a current at 200V for about 1 hour, or until when the front has not reached the bottom of the gel.
Once running, the proteins were transferred from the gel to a […] membrane (PVDF).
The transfer was performed by passing a voltage of 100V for 1 hour.
The membranes were blocked with 5% (wt/vol) nonfat dry milk in Tris-buffered saline with Tween buffer (T-TBS) (20 mmol/1 Tris-Hcl, pH 7.6, 0.138 mol/l NaCl, and 0.1% Tween 20) for 1 hour under stirring and at room temperature.
The expression of SIRT 1 was analyzed incubating the membranes in the presence of specific primary antibodies and, subsequently, of secondary peroxidase-conjugated antibodies, suitable diluted in 5% BSA in T-TBS. Primary Antibodies were used overnight at 4° C. at the following conditions: anti-SIRT 1, rabbit (1:1000) and anti-β-actine, mouse (1:1000). Secondary antibodies were instead used at this dilution: goat anti-rabbit (1:10000) for SIRT 1 and for β-actin.
During this phase the primary antibody binds to species-specific secondary antibody conjugated to a peroxidase enzyme that will bind, in the next step, a specific substrate (luminol) for the reaction of chemiluminescence.
Later, were performed a series of washes with TBS-Tween under stirring, in order to remove all the unbound secondary antibody.
Bound antibodies were visualized using Chemiluminescence Luminata Crescendo Western HRP Substrate and bands were detected and analyzed by the Kodak Image Station 440CF (Eastman Kodak, Rochester, N.Y., USA).

With COc1ccc2cc3[n+](cc2c1OC)CCc1cc2c(cc1-3)OCO2 [Berberine, Berberine Chloride Hydrate] the “% 3 h increase (SIRT 1 expression compared to control)” value (from here on “% 3 h increase”) (5 μM) was 63%, the “% 6 h increase (SIRT 1 expression compared to control)” value (from here on “% 6 h increase”) (5 μM) was 65% and the “% 24 h increase (SIRT 1 expression compared to control)” value (from here on “% 24 h increase”) (5 μM) was 75%. For the same molecule, the “% 3 h increase” value (10 μM) was 65%, the “% 6 h increase” value (10 μM) was 64% and the “% 24 h increase” value (10 μM) was 75%. For the same molecule, the “increase of SIRT 1 expression relative to the other groups” value was “greater increase than the other groups”.

For COc1cc(/C=C/C(=O)O)ccc1O [Ferulic Acid], the “% 3 h increase” value (25 μM) was 43%, the “% 6 h increase” value (25 μM) was 44% and the “% 24 h increase” value (25 μM) was 66%. The “% 3 h increase” value (50 μM) was 57%, the “% 6 h increase” value (50 μM) was 58% and the “% 24 h increase” value (50 μM) was 75%. For the same molecule, the “increase of SIRT 1 expression relative to the other groups” value was “greater increase than the other groups”.

O.O.O=c1c(O)c(-c2ccc(O)c(O)c2)oc2cc(O)cc(O)c12 [Quercetin, Quercetin Dihydrate] was tested, and the “% 3 h increase” value (5 μM) was 21%, the “% 6 h increase” value (5 μM) was 22% and the “% 24 h increase” value (5 μM) was 29%. For the same molecule, the “% 3 h increase” value (10 μM) was 27%, the “% 6 h increase” value (10 μM) was 27% and the “% 24 h increase” value (10 μM) was 54%.

Oc1ccc(C=Cc2cc(O)cc(O)c2)cc1 [Resveratrol, reference compound] was tested, and the “% 3 h increase” value (5 μM) was 46%, the “% 6 h increase” value (5 μM) was 47% and the “% 24 h increase” value (5 μM) was 68%. The “% 3 h increase” value (10 μM) was 47%, the “% 6 h increase” value (10 μM) was 48% and the “% 24 h increase” value (10 μM) was 69%.

For OCCc1ccc(O)cc1 [Tyrosol], the “% 3 h increase” value (10 μM) was 53%, the “% 6 h increase” value (10 μM) was 62% and the “% 24 h increase” value (10 μM) was 68%. For the same molecule, the “% 3 h increase” value (20 μM) was 76%, the “% 6 h increase” value (20 μM) was 93% and the “% 24 h increase” value (20 μM) was 101%. For the same molecule, the “increase of SIRT 1 expression relative to the other groups” value was “greater increase than the other groups”.

(+)-Catechin was tested, and the “% 3 h increase” value (5 μM) was 44%, the “% 6 h increase” value (5 μM) was 44% and the “% 24 h increase” value (5 μM) was 46%. The “% 3 h increase” value (10 μM) was 54%, the “% 6 h increase” value (10 μM) was 54% and the “% 24 h increase” value (10 μM) was 57%. For the same molecule, the “increase of SIRT 1 expression relative to the other groups” value was “greater increase than the other groups”.
